Measurements as given in patent US8084457B2, “Pharmaceutically active 4,6-disubstituted aminopyrimidine derivatives as modulators of protein kinases” (Lead Discovery Center GmbH, priority 2003, dated 2011).

Columns and labels:
Format in all cases: cell-based
[1] = tested on: NFκB-dependent transcriptional activity; experiment: NFκB-dependent transcriptional activity (NIH 3T3 75E 11/300D8 cell line)
Description: NFκB-dependent Transcriptional Activity:
The used NIH 3T3 75E 11/300D8 cell line is described elsewhere (J. Eickhoff et al., Journal of Biological Chemistry, 2004, 279(10), 9642-9652).
It is known, that CDK9 regulates the NFκB-dependent transitional activity. With Compound 4, Compound 7 and Compound 30 studies were done, to evaluate their effect on NFκB-dependent transcriptional activity.

HBV = HBV replication assay in HepG2-2.2.15 cells
Method: To test anti—HBV-activity of compounds the HBV-producing cell line HepG2-2.2.15 (M. A. Sells, PNAS 1987, 84, 1005-1009) was used. 1.0×10^4 cells were seeded in 96-well microtiter plates in DMEM medium supplemented with 10% FCS. After incubation at 37° C. in 5% CO2 atmosphere for 24 hours the medium was replaced with fresh medium containing the appropriately diluted compound. 3 days later medium was replaced by freshly prepared inhibitor-containing medium and the cells were incubated for further 3 days. Subsequently 200 μl lysis buffer (50 mM Tris-Cl 7.5; 1 mM EDTA 8.0; 0.5% NP40) per well was added. To remove cell debris and […], lysate was centrifuged (15000 rpm, 10 min, 4° C.). Cellular and viral RNA was removed by addition of 2 μl of RNase. 100 μl of the samples were spotted onto an uncharged nylon membrane pre-wetted with PBS (phosphate-buffered saline) using a 96 well-blotting chamber (MINIfold Dot-Blot, Schleicher&Schüll). After further washing with 200 μl PBS per well the membrane was treated twice with 0.5 M NaOH, 1.5 M NaCl (2 min) and 4 times with 0.5 M Tris 7.5, 3 M NaCl (1 min). The nucleic acids were fixed by UV-treatment and used for hybridisabon with a radioactive HBV-fragment prepared from the overgenome-length HBV-plasmid pT-HBV1.3 (L. G. Guidotti et al., Journal of Virology 1995., 69(10), 6158-6169).
The fixed membrane was pre-hybridized in a standard hybridisation buffer (50% formamide, 5×SSPE, 10×Denhards, 1% SDS, 100 μg/ml salmon sperm DNA) for at least 3 hours at 42° C. and hybridised overnight against the labelled HBV-fragment. The preparation of the HBV-fragment with the “Random primers DNA labelling system” (Invitrogen) was done according to the manufacturer's instructions. Hybridized filter were washed at room temperature with 2×SSC, at 62° C. with 2×SSC, 0.5% SDS and at 62° C. with 0.5×SSC, 0.5% SDS. Each washing step was carried out twice. The intensity of the HBV-DNA was quantified using a phosphoimager (Fuji). […] Absorbance was monitored at 570 nm and 600 nm wavelength.

HepG2-2.2.15-cells = tested on: HepG2-2.2.15-cells
Method: The fixed membrane was pre-hybridized in a standard hybridisation buffer (50% formamide, 5×SSPE, 10×Denhards, 1% SDS, 100 μg/ml salmon sperm DNA) for at least 3 hours at 42° C. and hybridised overnight against the labelled HBV-fragment. The preparation of the HBV-fragment with the “Random primers DNA labelling system” (Invitrogen) was done according to the manufacturer's instructions. Hybridized filter were washed at room temperature with 2×SSC, at 62° C. with 2×SSC, 0.5% SDS and at 62° C. with 0.5×SSC, 0.5% SDS. Each washing step was carried out twice. The intensity of the HBV-DNA was quantified using a phosphoimager (Fuji). To test the cell viability 0.5×10^4 HepG2-2.2.15-cells were seeded in 96-well-microtiter plates in DMEM medium supplemented with 10% fetal bovine serum. After incubation at 37° C. for 24 hours the medium was replaced by fresh compound-containing medium. 3 days later medium was replaced again by freshly prepared medium containing the inhibitor and the cells were incubated for further 3 days at 37° C. After the incubation period 1/10 volume of Alamar Blue (Serotec) solution containing a growth dependant indicator was added and the cells were incubated for 3 h at 37° C. Absorbance was monitored at 570 nm and 600 nm wavelength.

c1ccc(COc2ccccc2-c2cc(NCCc3ccncc3)ncn2)cc1 [Compound 7]
inhibition of NFκB (in words, compared with Compound 30) [1]: less effectively
HBV replication (in words) (HBV): inhibited replication
viability of the cells in the HBV replication assay (HepG2-2.2.15-cells): without affecting viability
